Molecules are shown by their SMILES. Bounds are passed on as bounds.

Results on three compounds are retold here after ChEMBL document CHEMBL6177956, “Discovery of first-in-class human glycolate oxidase near infrared molecular rotor inhibitors (NIRGOi)” (Eur J Med Chem, 2025).

Assay [1] addresses T1, 2-Hydroxyacid oxidase 2 (Rattus norvegicus, UniProt Q07523).
T1 sequence (Q07523 whole entry): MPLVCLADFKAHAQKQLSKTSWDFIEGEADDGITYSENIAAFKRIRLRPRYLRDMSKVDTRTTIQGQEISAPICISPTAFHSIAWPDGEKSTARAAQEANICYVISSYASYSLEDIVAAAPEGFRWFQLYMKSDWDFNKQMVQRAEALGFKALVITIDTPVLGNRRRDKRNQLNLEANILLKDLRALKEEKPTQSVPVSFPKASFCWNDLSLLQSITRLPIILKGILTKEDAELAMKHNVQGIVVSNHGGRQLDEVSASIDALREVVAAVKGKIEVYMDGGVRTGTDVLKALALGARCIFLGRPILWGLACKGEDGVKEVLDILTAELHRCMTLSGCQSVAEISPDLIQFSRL
Put plainly: Inhibition of rat LCHAO using 2-hydroxyoctanoate as substrate incubated for 30 mins by Amplex Red reagent based fluorometric analysis. It counts as toxicity.

For assay [2], the target named is T1, 2-Hydroxyacid oxidase 2. Kind of assay: Binding affinity to rat LCHAO by Amplex Red reagent based fluorescence analysis. It counts as toxicity.

Take `O=C(O)c1cc(/C=C/C2=CC(=C3C(=O)c4ccccc4C3=O)c3ccccc3O2)ccc1O`: inhibition against 2-Hydroxyacid oxidase 2 [1] was half-maximal at 248 µM (IC50). On 2-Hydroxyacid oxidase 2 [2], binding was put at a Kd of 462 µM.
For the compound `CC1(C)C(/C=C/c2ccc(O)c(C(=O)O)c2)=[N+](CCC(=O)O)c2ccc3ccccc3c21`, half-maximal inhibition against 2-Hydroxyacid oxidase 2 [1] (IC50) required 36.7 µM. Moreover, at 2-Hydroxyacid oxidase 2 [2], the dissociation constant (Kd) (in general, a measure of binding affinity in units of concentration) came out at 3.2 µM.
Consider `N#CC(C#N)=C1C=C(/C=C/c2ccc(O)c(C(=O)O)c2)Oc2ccccc21`, for which, at 2-Hydroxyacid oxidase 2 [1], the IC50 – broadly, the concentration that gives 50% inhibition – is greater than 500 µM. In addition, at 2-Hydroxyacid oxidase 2 [2], the Kd was greater than 1000 µM.
